Patent publication US12714706B2, “Methods of treating small cell lung cancer with lurbinectedin formulations” (PHARMA MAR, S.A., priority 2019, dated 2026)

Experiment: Analytical results and impurity profile of batches of Form A and Form B of lurbinectedin
Assay type: physicochemical
Design: Impurity RRT approx. 1.10-1.11 / Impurity RRT approx. 1.12 / Impurity RRT approx. 1.27-1.34 / Impurity RRT approx. 1.29-1.30 / Impurity RRT approx. 1.30-1.32 / Impurity RRT approx. 1.28-1.37 / Impurity RRT approx. 2.37 / Impurity RRT approx. 2.41-2.52 / Impurity RRT approx. 2.85 / Impurity RRT approx. 0.66-0.69 / Impurity RRT approx. 0.72-0.76: unit not given here
Settings: for Impurity RRT aprox 0.72-0.76 / Impurity RRT aprox 1.10-1.11 / Impurity RRT aprox 0.66-0.69: batches of Form B
Description: Several batches of Form A of lurbinectedin were manufactured by this method.
Several batches of Form B of lurbinectedin were manufactured by this method.

[1] = impurity profile, batches of Form A
[2] = batches of Form B of lurbinectedin
[3] = batches of Form A of lurbinectedin

| Compound | Impurity RRT approx. 0.72-0.76 [1] | Impurity RRT approx. 1.10-1.11 [1] | Impurity RRT approx. 1.29-1.30 [1] | Impurity RRT approx. 1.30-1.32 [1] | Residual Solvents Acetonitrile [2] | Residual Solvents CH2Cl2 [2] | Residual Solvents Methanol [2] | Residual Solvents Pentane [2] | Residual Solvents Total [2] [% w/w] | Total Impurities [2] [% Area] | Water Content [2] [% w/w] | Impurity RRT aprox 0.72-0.76 (impurity profile) [% area] | other results |
| --- | --- | --- | --- | --- | --- | --- | --- | --- | --- | --- | --- | --- | --- |
| COc1ccc2[nH]c3c(c2c1)CCN[C@]31CS[C@@H]2c3c(OC(C)=O)c(C)c4c(c3[C@H](COC1=O)N1[C@@H]2[C@H]2c3c(cc(C)c(OC)c3O)C[C@@H]([C@@H]1O)N2C)OCO4 [Batch M03] | 0.12 | 0.11 | 0.10 | 0.11 | – | – | – | – | – | – | – | – | – |
| COc1ccc2[nH]c3c(c2c1)CCN[C@]31CS[C@@H]2c3c(OC(C)=O)c(C)c4c(c3[C@H](COC1=O)N1[C@@H]2[C@H]2c3c(cc(C)c(OC)c3O)C[C@@H]([C@@H]1O)N2C)OCO4 [Batch P05] | – | – | – | – | <LOQ | <LOQ | <LOQ | <LOQ | 0.0 | 0.3 | 2.1 | 0.24 | Residual Solvents AcOEt [2]: <LOQ; Residual Solvents Hexane [2]: <LOQ; Impurity RRT aprox 1.10-1.11 (impurity profile): 0.07 % area |
| COc1ccc2[nH]c3c(c2c1)CCN[C@]31CS[C@@H]2c3c(OC(C)=O)c(C)c4c(c3[C@H](COC1=O)N1[C@@H]2[C@H]2c3c(cc(C)c(OC)c3O)C[C@@H]([C@@H]1O)N2C)OCO4 [Batch M02] | 0.08 | 0.10 | 0.17 | 0.08 | – | – | – | – | – | – | – | – | Impurity RRT approx. 1.28-1.37 [1]: 0.08 |
| COc1ccc2[nH]c3c(c2c1)CCN[C@]31CS[C@@H]2c3c(OC(C)=O)c(C)c4c(c3[C@H](COC1=O)N1[C@@H]2[C@H]2c3c(cc(C)c(OC)c3O)C[C@@H]([C@@H]1O)N2C)OCO4 [Batch 1711182-2] | – | – | – | – | <LOQ | <LOQ | <LOQ | <LOQ | 0.0 | 0.3 | 2.4 | 0.34 | – |
| COc1ccc2[nH]c3c(c2c1)CCN[C@]31CS[C@@H]2c3c(OC(C)=O)c(C)c4c(c3[C@H](COC1=O)N1[C@@H]2[C@H]2c3c(cc(C)c(OC)c3O)C[C@@H]([C@@H]1O)N2C)OCO4 [Batch 1799069] | – | – | – | – | <LOQ | <LOQ | <LOQ | <LOQ | 0.0 | 0.4 | 2.0 | 0.31 | Impurity RRT aprox 1.10-1.11 (impurity profile): 0.06 % area |
| COc1ccc2[nH]c3c(c2c1)CCN[C@]31CS[C@@H]2c3c(OC(C)=O)c(C)c4c(c3[C@H](COC1=O)N1[C@@H]2[C@H]2c3c(cc(C)c(OC)c3O)C[C@@H]([C@@H]1O)N2C)OCO4 [Batch R01] | – | – | – | – | <LOQ | <LOQ | <LOQ | <LOQ | 0.0 | 0.3 | 1.9 | 0.22 | Residual Solvents AcOEt [2]: <LOQ; Residual Solvents Hexane [2]: <LOQ; Impurity RRT aprox 1.10-1.11 (impurity profile): 0.09 % area |
| COc1ccc2[nH]c3c(c2c1)CCN[C@]31CS[C@@H]2c3c(OC(C)=O)c(C)c4c(c3[C@H](COC1=O)N1[C@@H]2[C@H]2c3c(cc(C)c(OC)c3O)C[C@@H]([C@@H]1O)N2C)OCO4 [Batch K04] | – | 0.20 | 0.11 | 0.08 | – | – | – | – | – | – | – | – | – |
| COc1ccc2[nH]c3c(c2c1)CCN[C@]31CS[C@@H]2c3c(OC(C)=O)c(C)c4c(c3[C@H](COC1=O)N1[C@@H]2[C@H]2c3c(cc(C)c(OC)c3O)C[C@@H]([C@@H]1O)N2C)OCO4 [Batch G01] | 0.11 | 0.50 | – | 0.13 | – | – | – | – | – | – | – | – | Impurity RRT approx. 0.66-0.69 [1]: 0.06 |
| COc1ccc2[nH]c3c(c2c1)CCN[C@]31CS[C@@H]2c3c(OC(C)=O)c(C)c4c(c3[C@H](COC1=O)N1[C@@H]2[C@H]2c3c(cc(C)c(OC)c3O)C[C@@H]([C@@H]1O)N2C)OCO4 [Batch P02] | – | 0.09 | 0.06 | 0.13 | – | – | – | – | – | – | – | – | Impurities Total [3]: 0.4 % Area; Residual Solvents Acetonitrile [3]: <LOQ; Residual Solvents Dichloro-methane [3]: <LOQ; Residual Solvents Ethyl acetate [3]: <LOQ; Residual Solvents Hexane [3]: 0.01 % w/w; Residual Solvents Methanol [3]: 1.7 % w/w; Residual Solvents Pentane [3]: 0.2 % w/w; Residual Solvents Total [3]: 1.9 % w/w; Water Content [3]: 1.2 % w/w |
| COc1ccc2[nH]c3c(c2c1)CCN[C@]31CS[C@@H]2c3c(OC(C)=O)c(C)c4c(c3[C@H](COC1=O)N1[C@@H]2[C@H]2c3c(cc(C)c(OC)c3O)C[C@@H]([C@@H]1O)N2C)OCO4 [Batch R03] | – | – | – | – | <LOQ | <LOQ | <LOQ | <LOQ | 0.0 | 0.3 | 1.7 | 0.22 | Impurity RRT aprox 0.66-0.69 (impurity profile): 0.05 % area |
| COc1ccc2[nH]c3c(c2c1)CCN[C@]31CS[C@@H]2c3c(OC(C)=O)c(C)c4c(c3[C@H](COC1=O)N1[C@@H]2[C@H]2c3c(cc(C)c(OC)c3O)C[C@@H]([C@@H]1O)N2C)OCO4 [Batch 1711189-2] | – | – | – | – | <LOQ | <LOQ | <LOQ | <LOQ | 0.0 | 0.3 | 2.5 | 0.30 | Impurity RRT aprox 0.66-0.69 (impurity profile): 0.05 % area |
| COc1ccc2[nH]c3c(c2c1)CCN[C@]31CS[C@@H]2c3c(OC(C)=O)c(C)c4c(c3[C@H](COC1=O)N1[C@@H]2[C@H]2c3c(cc(C)c(OC)c3O)C[C@@H]([C@@H]1O)N2C)OCO4 [Batch K03] | 0.07 | 0.17 | 0.37 | 0.08 | – | – | – | – | – | – | – | – | – |
| COc1ccc2[nH]c3c(c2c1)CCN[C@]31CS[C@@H]2c3c(OC(C)=O)c(C)c4c(c3[C@H](COC1=O)N1[C@@H]2[C@H]2c3c(cc(C)c(OC)c3O)C[C@@H]([C@@H]1O)N2C)OCO4 [Batch R02] | – | – | – | – | <LOQ | <LOQ | – | <LOQ | 0.0 | 0.3 | 2.0 | 0.28 | – |
| COc1ccc2[nH]c3c(c2c1)CCN[C@]31CS[C@@H]2c3c(OC(C)=O)c(C)c4c(c3[C@H](COC1=O)N1[C@@H]2[C@H]2c3c(cc(C)c(OC)c3O)C[C@@H]([C@@H]1O)N2C)OCO4 [Batch K02] | 0.09 | 0.13 | 0.07 | 0.19 | – | – | – | – | – | – | – | – | – |
| COc1ccc2[nH]c3c(c2c1)CCN[C@]31CS[C@@H]2c3c(OC(C)=O)c(C)c4c(c3[C@H](COC1=O)N1[C@@H]2[C@H]2c3c(cc(C)c(OC)c3O)C[C@@H]([C@@H]1O)N2C)OCO4 [Batch R04] | – | – | – | – | <LOQ | <LOQ | <LOQ | <LOQ | 0.0 | 0.4 | 2.6 | 0.26 | Impurity RRT aprox 0.66-0.69 (impurity profile): 0.05 % area; Impurity RRT aprox 1.10-1.11 (impurity profile): 0.07 % area |
| COc1ccc2[nH]c3c(c2c1)CCN[C@]31CS[C@@H]2c3c(OC(C)=O)c(C)c4c(c3[C@H](COC1=O)N1[C@@H]2[C@H]2c3c(cc(C)c(OC)c3O)C[C@@H]([C@@H]1O)N2C)OCO4 [Batch F02] | 0.06 | 0.17 | – | 0.09 | – | – | – | – | – | – | – | – | Impurity RRT approx. 0.66-0.69 [1]: 0.19; Impurity RRT approx. 1.27-1.34 [1]: 0.12; Impurity RRT approx. 2.41-2.52 [1]: 0.07; Impurity RRT approx. 2.85 [1]: 0.07 |
| COc1ccc2[nH]c3c(c2c1)CCN[C@]31CS[C@@H]2c3c(OC(C)=O)c(C)c4c(c3[C@H](COC1=O)N1[C@@H]2[C@H]2c3c(cc(C)c(OC)c3O)C[C@@H]([C@@H]1O)N2C)OCO4 [Batch P01] | – | 0.15 | 0.09 | – | – | – | – | – | – | – | – | – | Impurities Total [3]: 0.3 % Area; Residual Solvents Acetonitrile [3]: 0.01 % w/w; Residual Solvents Dichloro-methane [3]: <LOQ; Residual Solvents Ethyl acetate [3]: <LOQ; Residual Solvents Hexane [3]: <LOQ; Residual Solvents Methanol [3]: 1.1 % w/w; Residual Solvents Pentane [3]: 0.2 % w/w; Residual Solvents Total [3]: 1.4 % w/w; Water Content [3]: 0.9 % w/w |
| COc1ccc2[nH]c3c(c2c1)CCN[C@]31CS[C@@H]2c3c(OC(C)=O)c(C)c4c(c3[C@H](COC1=O)N1[C@@H]2[C@H]2c3c(cc(C)c(OC)c3O)C[C@@H]([C@@H]1O)N2C)OCO4 [Batch P03] | – | – | 0.09 | – | – | – | – | – | – | – | – | – | Impurities Total [3]: 0.3 % Area; Residual Solvents Acetonitrile [3]: <LOQ; Residual Solvents Dichloro-methane [3]: 0.01 % w/w; Residual Solvents Ethyl acetate [3]: <LOQ; Residual Solvents Hexane [3]: <LOQ; Residual Solvents Methanol [3]: 1.6 % w/w; Residual Solvents Pentane [3]: 0.3 % w/w; Residual Solvents Total [3]: 1.9 % w/w; Water Content [3]: 1.6 % w/w; Impurity RRT approx. 1.12 [1]: 0.07 |
| COc1ccc2[nH]c3c(c2c1)CCN[C@]31CS[C@@H]2c3c(OC(C)=O)c(C)c4c(c3[C@H](COC1=O)N1[C@@H]2[C@H]2c3c(cc(C)c(OC)c3O)C[C@@H]([C@@H]1O)N2C)OCO4 [Batch M01] | 0.10 | 0.08 | 0.10 | 0.18 | – | – | – | – | – | – | – | – | – |
